Test [1] concerns the target pseudo-kinase domain (JH2, amino-acids 536-812) of human Wild Type JAK2 (Homo sapiens (Human), UniProt O60674, F794H/W659A/W777A). Kind of test: JAK2 LanthaScreen JH2-WT Binding Assay. To be noted: JAK2 JH2-WT 0.145 nM, 50 nM fluorescent tracer, 1 hour at 25° C.; read-out: JH2 BIND WT IC50. The method, then: Example B. JAK2 LanthaScreen JH2-WT Binding Assay
(§1) The assay was conducted in black 384-well polystyrene plates in a final reaction volume of 20 μL. JAK2 JH2-WT (0.145 nM) was incubated with compounds (100 nL serially diluted in DMSO) in the presence of 50 nM Fluorescent JAK2-JH2 Tracer (MedChem Express Catalog #HY-102055) and 0.25 nM Streptavidin-Tb cryptate (Cisbio Part #610SATLB) in assay buffer (50 mM Tris, pH=7.5, 10 mM MgCl2, 0.01% Brij-35, 0.1% BSA, 1 mM EGTA, 5% Glycerol and 5 mM DTT). Non-specific binding was accessed in the presence of 2 mM ATP. After incubation for 1 hour at 25° C., LanthaScreen signals were read on a PHERAstar FS plate reader (BMG LABTECH). Data was analyzed with IDBS XLfit and GraphPad Prism 5.0 software using a four parameter dose response curve to determine IC50 for each compound.
(In general: In TR-FRET formats the signal depends on donor and acceptor labels being close together.)

Test [2] concerns the target pseudo-kinase domain (JH2, amino-acids 536-812) of human V617F mutant JAK2 (Homo sapiens (Human), UniProt O60674, F794H/V617F/W659A/W777A). Kind of test: JAK2 LanthaScreen JH2-V617F Binding Assay. The following applies: JAK2 JH2-V617F 0.26 nM, 50 nM fluorescent tracer, 1 hour at 25° C.; read-out: JH2 BIND V617F IC50. The method, then: The assay was conducted in black 384-well polystyrene plates in a final reaction volume of 20 μL. […] Non-specific binding was accessed in the presence of 2 mM ATP. After incubation for 1 hour at 25° C., LanthaScreen signals were read on a PHERAstar FS plate reader (BMG LABTECH). Data was analyzed with IDBS XLfit and GraphPad Prism 5.0 software using a four parameter dose response curve to determine IC50 for each compound.

The target in test [3] is catalytic domain (JH1, amino acids 826-1132) of human JAK2 (Homo sapiens (Human), UniProt O60674). Kind of test: JAK2 LanthaScreen JH1 Binding Assay. The following applies: JAK2 JH1 1.5 nM, 50 nM fluorescent tracer, 2 hours at 25° C.; read-out: JH1 BIND IC50. Here is the method: Example A. JAK2 LanthaScreen JH1 Binding Assay
catalytic domain (JH1, amino acids 826-1132) of human JAK2, sequence (O60674 826-1132): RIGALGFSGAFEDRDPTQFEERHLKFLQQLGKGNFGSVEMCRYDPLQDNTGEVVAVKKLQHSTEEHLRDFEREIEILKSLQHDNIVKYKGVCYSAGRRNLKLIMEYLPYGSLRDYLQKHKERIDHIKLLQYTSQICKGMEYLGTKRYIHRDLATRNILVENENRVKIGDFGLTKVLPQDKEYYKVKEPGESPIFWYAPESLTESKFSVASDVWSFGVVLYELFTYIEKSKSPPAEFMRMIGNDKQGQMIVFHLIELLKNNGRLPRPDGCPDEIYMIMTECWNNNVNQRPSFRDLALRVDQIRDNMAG
as §1, with “JAK2 JH1 binding assay utilizes catalytic domain (JH1, amino acids 826-1132) of human JAK2 expressed as N-terminal FLAG-tagged, biotinylated protein in a baculovirus expression system (Carna Biosciences, Product #08-445-20N). The” for “The”, “JH1 (1.5” for “JH2-WT (0.145”, “JAK2-JH1” for “JAK2-JH2”, “Tracer” for “Tracer (MedChem Express Catalog #HY-102055)”, “0.5” for “0.25”, “2 hours” for “1 hour”

Test [4] has as its target catalytic domain (JH1, amino acids 808-1132) of human JAK2 (Homo sapiens (Human), UniProt O60674). Kind of test: JAK2 HTRF Enzyme Activity Assay. Format: biochemical. The following applies: JAK2 0.015 nM, ATP (30 μM or 1 mM), 60 minutes at 25° C. The method, then: Example D. JAK2 HTRF Enzyme Activity Assay
JAK2 enzyme activity assays utilize catalytic domain (JH1, amino acids 808-1132) of human JAK2 expressed as N-terminal His-tagged protein in a baculovirus expression system (BPS Bioscience, Catalog #40450). The assays was conducted in black 384-well polystyrene plates in a final reaction volume of 20 μL. JAK2 (0.015 nM) was incubated with compounds (100 nL serially diluted in DMSO) in the presence of ATP (30 μM or 1 mM) and 500 nM Biotin-labeled […] (SEQ ID NO.: 1) peptide (BioSource International, custom synthesis) in assay buffer (50 mM Tris, pH=7.5, 10 mM MgCl2, 0.01% Brij-35, 0.1% BSA, 1 mM EGTA, 5% Glycerol and 5 mM DTT) for 60 minutes at 25° C. The reactions were stopped by the addition of 10 μL of detection buffer (50 mM Tris, pH 7.8, 0.5 mg/mL BSA, 150 mM NaCl), supplemented with EDTA, LANCE Eu-W1024 anti-phosphotyrosine (PY20), (PerkinElmer, Catalog #AD0067) and Streptavidin SureLight APC (PerkinElmer Catalog #CR130-100), for a final concentration of 15 mM, 1.5 nM and 75 nM, respectively. HTRF signals were read after 30 minutes incubation at room temperature on a PHERAstar FS plate reader (BMG LABTECH). Data was analyzed with IDBS XLfit and GraphPad Prism 5.0 software using a four parameter dose response curve to determine IC50 for each compound.

Counter-ions that a name gives are not always drawn.

catalytic domain (JH1, amino acids 808-1132) of human JAK2, sequence (O60674 808-1132): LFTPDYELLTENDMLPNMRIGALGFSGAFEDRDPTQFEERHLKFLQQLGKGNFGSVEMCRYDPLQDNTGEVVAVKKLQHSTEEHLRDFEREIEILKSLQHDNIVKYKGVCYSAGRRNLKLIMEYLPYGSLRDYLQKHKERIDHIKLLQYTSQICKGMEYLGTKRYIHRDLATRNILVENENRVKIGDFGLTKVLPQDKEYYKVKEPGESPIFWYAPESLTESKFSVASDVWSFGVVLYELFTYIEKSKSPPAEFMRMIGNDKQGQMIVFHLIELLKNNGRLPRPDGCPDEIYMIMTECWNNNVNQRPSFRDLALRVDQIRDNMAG
pseudo-kinase domain (JH2, amino-acids 536-812) of human Wild Type JAK2, sequence (O60674 536-812 W659A/W777A/F794H): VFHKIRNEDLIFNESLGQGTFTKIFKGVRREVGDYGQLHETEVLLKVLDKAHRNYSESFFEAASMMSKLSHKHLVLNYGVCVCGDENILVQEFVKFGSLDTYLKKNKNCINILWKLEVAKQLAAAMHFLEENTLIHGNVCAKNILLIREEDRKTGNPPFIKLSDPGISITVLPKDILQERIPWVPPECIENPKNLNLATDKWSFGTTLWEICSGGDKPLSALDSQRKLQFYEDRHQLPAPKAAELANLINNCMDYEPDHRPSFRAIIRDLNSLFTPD
pseudo-kinase domain (JH2, amino-acids 536-812) of human V617F mutant JAK2, sequence (O60674 536-812 V617F/W659A/W777A/F794H): as the sequence (O60674 536-812 W659A/W777A/F794H) above, with V82F counted along it

For `CN1C(=O)N(c2ccc(NC(=O)CC#N)cc2)Cc2c1cnc1[nH]c(-c3ccc(CN4CCC(S(C)(=O)=O)CC4)cc3)cc21` [Example 9, 2-Cyano-N-(4-(4-methyl-8-(4-((4-(methylsulfonyl)piperidin-1-yl)methyl)phenyl)-3-oxo-1,3,4,7-tetrahydro-2H-pyrrolo[3′,2′:5,6]pyrido[3,4-d]pyrimidin-2-yl)phenyl)acetamide], the half-inhibitory concentration (IC50) in test [1], in test [2], in test [3] and in test [4] was 100 to 500 nM throughout.
In the case of `CN1C(=O)N(c2ccc(C(=O)O)cc2)Cc2c1cnc1[nH]c(-c3ccc(CN4CCC(S(C)(=O)=O)CC4)cc3)cc21` [Example 3, 4-(4-Methyl-8-(4-((4-(methylsulfonyl)piperidin-1-yl)methyl)phenyl)-3-oxo-1,3,4,7-tetrahydro-2H-pyrrolo[3′,2′:5,6]pyrido[3,4-d]pyrimidin-2-yl)benzoic Acid], the IC50 in test [1] is not above 100 nM; in test [2], not above 100 nM; in test [3], 1000 to 2500 nM; in test [4] it was 1000 to 2500 nM.
Regarding `COc1ccc(-c2c(C3CC3)[nH]c3ncc4c(c23)CN(c2ccc(C(=O)O)cc2)C(=O)N4C)cc1` [Example 26, 4-(8-Cyclopropyl-9-(4-methoxyphenyl)-4-methyl-3-oxo-1,3,4,7-tetrahydro-2H-pyrrolo[3′,2′:5,6]pyrido[3,4-d]pyrimidin-2-yl)benzoic acid], the IC50 in test [1] was 100 to 500 nM; in test [2] it was 100 to 500 nM; in test [3], more than 2500 nM; in test [4] it was more than 2500 nM.
In the case of `CN1C(=O)N(c2ccc(C(=O)O)cc2)Cc2c1cnc1[nH]c(-c3ccc(CN4CCC(S(C)(=O)=O)CC4)cc3)c(I)c21` [Example 25, 4-(9-Iodo-4-methyl-8-(4-((4-(methylsulfonyl)piperidin-1-yl)methyl)phenyl)-3-oxo-1,3,4,7-tetrahydro-2H-pyrrolo[3′,2′:5,6]pyrido[3,4-d]pyrimidin-2-yl)benzoic acid Trifluoroacetic Acid Salt], the IC50 in test [1] is not above 100 nM; in test [2], not above 100 nM; in test [3], 500 to 1000 nM; in test [4] it was 1000 to 2500 nM.
As for `CS(=O)(=O)C1CCN(Cc2ccc(-c3cc4c5c(cnc4[nH]3)NC(=O)N(C3CCCCC3)C5)cc2)CC1` [Example 5, 2-Cyclohexyl-8-(4-((4-(methylsulfonyl)piperidin-1-yl)methyl)phenyl)-1,2,4,7-tetrahydro-3H-pyrrolo[3′,2′:5,6]pyrido[3,4-d]pyrimidin-3-one], the half-maximal inhibitory concentration (IC50) in test [1] is 100 to 500 nM; in test [2] it was 500 to 1000 nM; in test [3] it was not above 100 nM; in test [4], not above 100 nM.
Consider `COC(=O)c1c(-c2ccc(CN3CCC(S(C)(=O)=O)CC3)cc2)[nH]c2ncc3c(c12)CN(c1ccc(C(=O)O)cc1)C(=O)N3C` [Example 15, 4-(9-(Methoxycarbonyl)-4-methyl-8-(4-((4-(methylsulfonyl)piperidin-1-yl)methyl)phenyl)-3-oxo-1,3,4,7-tetrahydro-2H-pyrrolo[3′,2′:5,6]pyrido[3,4-d]pyrimidin-2-yl)benzoic acid Trifluoroacetic Acid Salt], for which the IC50 in test [1] is 100 to 500 nM; in test [2], 100 to 500 nM; in test [3], more than 2500 nM; in test [4] it was more than 2500 nM.
Take `CC(=O)NCc1ccc(-c2c(-c3ccc(CN4CCC(S(C)(=O)=O)CC4)cc3)[nH]c3ncc4c(c23)CN(C(C)(C)C)C(=O)N4C)cc1` [Example 16, N-(4-(2-(tert-Butyl)-4-methyl-8-(4-((4-(methylsulfonyl)piperidin-1-yl)methyl)phenyl)-3-oxo-2,3,4,7-tetrahydro-1H-pyrrolo[3′,2′:5,6]pyrido[3,4-d]pyrimidin-9-yl)benzyl)acetamide]: the IC50 in test [1], in test [2], in test [3] and in test [4] was not above 100 nM in each case.
On to `CC(C(N)=O)n1cc(-c2ccc(-c3c(-c4ccc(CN5CCC(S(C)(=O)=O)CC5)cc4)[nH]c4ncc5c(c34)CN(C(C)(C)C)C(=O)N5C)cc2)cn1` (racemic) [Example 19, 2-(4-(4-(2-(tert-Butyl)-4-methyl-8-(4-((4-(methylsulfonyl)piperidin-1-yl)methyl)phenyl)-3-oxo-2,3,4,7-tetrahydro-1H-pyrrolo[3′,2′:5,6]pyrido[3,4-d]pyrimidin-9-yl)phenyl)-1H-pyrazol-1-yl)propanamide Trifluoroacetic Acid Salt], for which the IC50 in test [1], in test [2], in test [3] and in test [4] was not above 100 nM each time.
Turning to `CN1C(=O)N(c2ccccc2)Cc2c1cnc1[nH]c(-c3ccc(CN4CCC(S(C)(=O)=O)CC4)cc3)cc21` [Example 2, 4-Methyl-8-(4-((4-(methylsulfonyl)piperidin-1-yl)methyl)phenyl)-2-phenyl-1,2,4,7-tetrahydro-3H-pyrrolo[3′,2′:5,6]pyrido[3,4-b]pyrimidin-3-one], the IC50 in test [1] is 100 to 500 nM; in test [2] it was 500 to 1000 nM; in test [3], not above 100 nM; in test [4], not above 100 nM.
In the case of `CNC(=O)c1ccc(N2Cc3c(cnc4[nH]c(-c5ccc(CN6CCC(S(C)(=O)=O)CC6)cc5)c(-c5ccc(OC)cc5)c34)N(C)C2=O)cc1` [Example 12, 4-(9-(4-methoxyphenyl)-4-methyl-8-(4-((4-(methylsulfonyl)piperidin-1-yl)methyl)phenyl)-3-oxo-1,3,4,7-tetrahydro-2H-pyrrolo[3′,2′:5,6]pyrido[3,4-d]pyrimidin-2-yl)-N-methylbenzamide, trifluroacetate], the IC50 in test [1] was not above 100 nM; in test [2], not above 100 nM; in test [3], 1000 to 2500 nM; in test [4], 1000 to 2500 nM.
For `CN1C(=O)NCc2c1cnc1[nH]c(-c3ccc(CN4CCC(S(C)(=O)=O)CC4)cc3)cc21` [Example 1, 4-Methyl-8-(4-((4-(methylsulfonyl)piperidin-1-yl)methyl)phenyl)-1,2,4,7-tetrahydro-3H-pyrrolo[3′,2′:5,6]pyrido[3,4-d]pyrimidin-3-one], the IC50 in test [1] was 100 to 500 nM; in test [2], 500 to 1000 nM; in test [3], not above 100 nM; in test [4] it was not above 100 nM.
Consider `COCCNc1ccc(N2Cc3c(cnc4[nH]c(-c5ccc(CN6CCC(S(C)(=O)=O)CC6)cc5)cc34)N(C)C2=O)cc1` [Example 8, 2-(4-((2-Methoxyethyl)amino)phenyl)-4-methyl-8-(4-((4-(methylsulfonyl)piperidin-1-yl)methyl)phenyl)-1,2,4,7-tetrahydro-3H-pyrrolo[3′,2′:5,6]pyrido[3,4-d]pyrimidin-3-one], for which the IC50 fell in the range of 100 to 500 nM in test [1], 500 to 1000 nM in test [2], 100 to 500 nM in test [3] and 100 to 500 nM in test [4].

What is called IC50 is the concentration at which inhibition is half-maximal.
